Laboratory results from patent publication US9475854B2, “Lead compound for otoprotection: targeting HGF signaling with dihexa” (Washington State University, priority 2014, dated 2016).
Square brackets hold non-standard residues; d marks the D form. Peptide text beside a SMILES is read from it. * marks the point of attachment. Hexanoyl = CCCCCC(=O)*; Ahx = NCCCCCC(=O)O

Assays:
[1] = test system: zebrafish lateral line hair cells; test: Protection of zebrafish lateral line hair cells from aminoglycoside toxicity (hair cell survival); assay type: in vivo; conditions: for hair cell survival rate: 1 μM Dihexa
Text: The data is presented as mean+1 standard deviation (s.d.) ***p<0.005. ****p<0.001, with the number of stars being the confidence for the measurements and the p (i.e., p-value) being the probability of obtaining a test statistic result at least as extreme as the one that was actually observed. It is to be appreciated the differences are considered significant at P<0.05. Note also that the 0 Dihexa concentration levels in FIG. 1 and FIG. 2 are control levels no protective Dihexa was introduced as just Neomycin and Gentamicin is present in the hair cells.
Such an example method of operation can be enabled by providing Dihexa concentrations for each ototoxin. […] Toxin concentrations and treatment times are selected so that in each case, a range of about 60% up to about 80% hair cell loss is achieved, sufficient to robustly detect protection. While the methodology described above provides desirable information for a variety of ototoxins, the Dihexa-mediated protection for neomycin, gentamicin, and kanamycin, as enabled herein, is the most desirable because these three antibiotics activate partially independent cell death pathways, such that a single compound may not universally protect hair cells from aminoglycoside toxicity (Owens et al., 2009; Coffin et al., 2009; Vlasits et al., 2012; Coffin et al., 2013).
As part of the analysis process, after treatment, hair cell survival is more often quantitatively assessed by labeling with either the vital dye DASPEI for assessment in live, anesthetized fish, or with an antibody to parvalbumin for quantification in fixed tissue (Harris et al., 2003; Owens et al., 2009; Coffin et al., 2009, 2013). DASPEI allows for rapid assessment with minimal tissue processing time, while immunofluorescence is used to validate DASPEI assessment scores. Labeled hair cells are thereafter viewed using fluorescence microscopy and quantified as described in the published literature (e.g., Harris et al., 2003; Coffin et al., 2009, 2013). […]

[2] = Short duration safety studies; assay type: in vivo
Text: This is unsurprising since oncogenesis requires multiple mutations including both oncogene induction and tumor suppressor attenuation. Accordingly, Dihexa, as utilized herein, can also be delivered locally via intratympanic membrane injection of a Dihexa-containing hydrogel (e.g., Salt et al., 2011; Wang et al., 2011) as a way of the proof-of-principle that Dihexa is robustly otoprotective in for example, but not limited to, pre-clinical models.

rat dementia model = conditions: in vivo administration (McCoy et al., 2013; unpublished data); cited from earlier work
[3] = test system: rat Parkinson's Disease model; conditions: in vivo administration (McCoy et al., 2013; unpublished data); cited from earlier work
rats = conditions: in vivo in rats (Owens et al., 2008, Rubel et al., 2011); cited from earlier work

## CCCCCC(=O)N[C@@H](Cc1ccc(O)cc1)C(=O)N[C@H](C(=O)NCCCCCC(N)=O)[C@@H](C)CC [Dihexa] (Hexanoyl-Tyr-Ile-[Ahx]-NH2)
[1]; 1 μM Dihexa across Neomycin dose levels, FIG. 3
  protection from Neomycin-induced hair cell death: robust protection
[1]; 50 μM Gentamycin toxicity, FIG. 2
  hair cell survival rate: greater than 40%
[1]; 200 μM Neomycin toxicity, FIG. 1
  hair cell survival rate: greater than 60%
[2]
  neoplastic induction: lack of neoplastic induction
  toxicity: no apparent toxicity
Rat dementia model
  symptoms in rat dementia model: significantly attenuates symptoms
[3]
  symptoms in rat Parkinson's Disease model: significantly attenuates symptoms

## CCN1CCc2c(sc(NC(=O)Nc3ccc(Cl)cc3)c2C(N)=O)C1 [PROTO-1]
rats
  protection from aminoglycosides: confers protection
